One block for each molecule: values may come before it.
What was measured:
[1] = molecular target: Protein-tyrosine kinase 2-beta (Homo sapiens) (UniProt Q14289); assay: Selectivity interaction (Kinase panel (Z-LYTE Assay)) EUB0001632a PTK2B; details: at 10 µM
[2] = molecular target: T1, Histone-lysine N-methyltransferase EHMT1 (Homo sapiens) (UniProt Q9H9B1); assay: Selectivity interaction (Methyltransferase screen (radiometric assays, panel of 8 PRMTs, 21 protein lysine methyltransferases, 3 DNA methyltransferases, and one RNA methyltransferase)) EUB0000272b EHMT1
T1 sequence (whole entry): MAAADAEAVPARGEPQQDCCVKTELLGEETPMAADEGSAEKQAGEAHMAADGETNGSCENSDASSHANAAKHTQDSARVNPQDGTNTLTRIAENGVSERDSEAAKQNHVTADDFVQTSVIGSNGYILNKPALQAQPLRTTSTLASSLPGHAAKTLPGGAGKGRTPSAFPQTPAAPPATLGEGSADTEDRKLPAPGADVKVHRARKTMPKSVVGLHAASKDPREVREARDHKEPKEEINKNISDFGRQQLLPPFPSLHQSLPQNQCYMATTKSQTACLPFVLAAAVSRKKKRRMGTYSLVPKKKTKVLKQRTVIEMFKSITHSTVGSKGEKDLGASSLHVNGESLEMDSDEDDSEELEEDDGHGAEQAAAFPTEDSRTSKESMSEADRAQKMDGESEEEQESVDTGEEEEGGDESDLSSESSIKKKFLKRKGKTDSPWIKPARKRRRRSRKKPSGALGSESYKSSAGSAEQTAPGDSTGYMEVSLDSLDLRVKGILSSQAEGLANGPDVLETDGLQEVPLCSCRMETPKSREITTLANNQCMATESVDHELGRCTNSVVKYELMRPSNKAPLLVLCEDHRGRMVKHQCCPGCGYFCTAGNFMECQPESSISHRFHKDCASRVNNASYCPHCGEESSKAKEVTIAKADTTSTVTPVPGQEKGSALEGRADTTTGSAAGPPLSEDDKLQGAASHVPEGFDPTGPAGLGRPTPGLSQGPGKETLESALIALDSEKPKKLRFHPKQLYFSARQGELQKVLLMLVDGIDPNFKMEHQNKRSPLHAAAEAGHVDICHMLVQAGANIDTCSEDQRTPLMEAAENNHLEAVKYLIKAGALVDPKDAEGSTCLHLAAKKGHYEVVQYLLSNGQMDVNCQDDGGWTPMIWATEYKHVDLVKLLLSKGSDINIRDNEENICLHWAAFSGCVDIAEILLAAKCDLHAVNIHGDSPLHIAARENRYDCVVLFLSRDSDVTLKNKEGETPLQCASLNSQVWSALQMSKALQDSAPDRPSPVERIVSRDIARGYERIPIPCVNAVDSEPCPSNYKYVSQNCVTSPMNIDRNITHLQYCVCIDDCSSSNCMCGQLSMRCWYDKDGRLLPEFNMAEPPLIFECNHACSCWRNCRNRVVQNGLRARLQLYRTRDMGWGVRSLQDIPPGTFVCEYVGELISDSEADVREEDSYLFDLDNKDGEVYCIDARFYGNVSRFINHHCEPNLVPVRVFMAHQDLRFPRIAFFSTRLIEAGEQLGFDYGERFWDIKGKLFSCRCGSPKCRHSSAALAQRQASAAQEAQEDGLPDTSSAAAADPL

[3] = system: Leucine-rich repeat serine/threonine-protein kinase 2 (Homo sapiens), Q5S007 [G2019S]; assay: Selectivity interaction (KinomeScan (DiscoverX)) EUB0000666a LRRK2; details: at 10 µM
Adenosine receptor A2a = Adenosine receptor A2a (Homo sapiens, UniProt P29274); assay: Selectivity interaction (Safety Panel 44tm (Eurofins)) EUB0000162b ADORA2A; details: at 10 µM
[4] = molecular target: T2, Serine/threonine-protein kinase 3 (Homo sapiens) (UniProt Q13188); assay: Selectivity interaction (Kinase panel (DSF assay)) EUB0001489b STK3
T2 sequence (whole entry): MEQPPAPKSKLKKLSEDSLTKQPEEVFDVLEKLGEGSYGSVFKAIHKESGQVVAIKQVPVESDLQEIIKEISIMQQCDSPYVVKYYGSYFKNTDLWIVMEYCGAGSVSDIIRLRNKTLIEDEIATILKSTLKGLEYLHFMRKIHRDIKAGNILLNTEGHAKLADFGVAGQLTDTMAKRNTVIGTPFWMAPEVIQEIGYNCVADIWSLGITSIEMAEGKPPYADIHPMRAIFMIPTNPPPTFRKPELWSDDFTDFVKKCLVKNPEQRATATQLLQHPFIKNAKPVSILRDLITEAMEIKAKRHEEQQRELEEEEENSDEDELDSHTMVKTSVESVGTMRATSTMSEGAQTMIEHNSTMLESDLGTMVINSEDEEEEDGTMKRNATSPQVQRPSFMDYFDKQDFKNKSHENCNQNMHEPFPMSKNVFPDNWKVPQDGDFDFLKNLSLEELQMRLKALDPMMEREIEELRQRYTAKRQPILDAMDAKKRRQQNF

[5] = molecular target: Tyrosine-protein kinase Fyn (Homo sapiens) (UniProt P06241); assay: Selectivity interaction (SelectScreen profiling (Invitrogen)) EUB0000607a FYN; details: at 2 µM
[6] = molecular target: Ribosomal protein S6 kinase alpha-2 (Homo sapiens) (UniProt Q15349); assay: Selectivity interaction (ActivX KiNativ screen (kinase selectivity in THP-1 cell lysates)) EUB0000639a RPS6KA2; assay type: subcellular; details: lysate
Sequence of Ribosomal protein S6 kinase alpha-2 (Homo sapiens) (Q15349 whole entry): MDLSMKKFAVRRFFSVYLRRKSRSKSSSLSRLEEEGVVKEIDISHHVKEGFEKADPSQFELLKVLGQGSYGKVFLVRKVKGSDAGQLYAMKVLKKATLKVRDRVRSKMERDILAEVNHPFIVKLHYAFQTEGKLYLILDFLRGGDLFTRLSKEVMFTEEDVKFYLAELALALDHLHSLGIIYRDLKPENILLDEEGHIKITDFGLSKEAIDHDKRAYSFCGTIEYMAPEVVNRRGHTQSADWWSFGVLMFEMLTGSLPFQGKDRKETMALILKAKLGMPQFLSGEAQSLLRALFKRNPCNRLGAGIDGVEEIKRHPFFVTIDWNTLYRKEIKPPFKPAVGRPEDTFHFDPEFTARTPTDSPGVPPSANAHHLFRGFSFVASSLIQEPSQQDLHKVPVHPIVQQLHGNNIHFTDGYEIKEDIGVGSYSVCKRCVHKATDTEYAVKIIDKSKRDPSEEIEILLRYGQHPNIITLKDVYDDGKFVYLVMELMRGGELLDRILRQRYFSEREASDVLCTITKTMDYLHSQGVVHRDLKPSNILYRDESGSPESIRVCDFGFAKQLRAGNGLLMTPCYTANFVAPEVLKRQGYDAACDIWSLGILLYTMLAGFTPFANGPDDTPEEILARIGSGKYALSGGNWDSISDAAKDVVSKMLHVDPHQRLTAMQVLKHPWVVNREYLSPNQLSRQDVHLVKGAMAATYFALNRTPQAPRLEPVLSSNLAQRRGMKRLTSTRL

Sequence of Protein-tyrosine kinase 2-beta (Homo sapiens) (Q14289 whole entry, looked up): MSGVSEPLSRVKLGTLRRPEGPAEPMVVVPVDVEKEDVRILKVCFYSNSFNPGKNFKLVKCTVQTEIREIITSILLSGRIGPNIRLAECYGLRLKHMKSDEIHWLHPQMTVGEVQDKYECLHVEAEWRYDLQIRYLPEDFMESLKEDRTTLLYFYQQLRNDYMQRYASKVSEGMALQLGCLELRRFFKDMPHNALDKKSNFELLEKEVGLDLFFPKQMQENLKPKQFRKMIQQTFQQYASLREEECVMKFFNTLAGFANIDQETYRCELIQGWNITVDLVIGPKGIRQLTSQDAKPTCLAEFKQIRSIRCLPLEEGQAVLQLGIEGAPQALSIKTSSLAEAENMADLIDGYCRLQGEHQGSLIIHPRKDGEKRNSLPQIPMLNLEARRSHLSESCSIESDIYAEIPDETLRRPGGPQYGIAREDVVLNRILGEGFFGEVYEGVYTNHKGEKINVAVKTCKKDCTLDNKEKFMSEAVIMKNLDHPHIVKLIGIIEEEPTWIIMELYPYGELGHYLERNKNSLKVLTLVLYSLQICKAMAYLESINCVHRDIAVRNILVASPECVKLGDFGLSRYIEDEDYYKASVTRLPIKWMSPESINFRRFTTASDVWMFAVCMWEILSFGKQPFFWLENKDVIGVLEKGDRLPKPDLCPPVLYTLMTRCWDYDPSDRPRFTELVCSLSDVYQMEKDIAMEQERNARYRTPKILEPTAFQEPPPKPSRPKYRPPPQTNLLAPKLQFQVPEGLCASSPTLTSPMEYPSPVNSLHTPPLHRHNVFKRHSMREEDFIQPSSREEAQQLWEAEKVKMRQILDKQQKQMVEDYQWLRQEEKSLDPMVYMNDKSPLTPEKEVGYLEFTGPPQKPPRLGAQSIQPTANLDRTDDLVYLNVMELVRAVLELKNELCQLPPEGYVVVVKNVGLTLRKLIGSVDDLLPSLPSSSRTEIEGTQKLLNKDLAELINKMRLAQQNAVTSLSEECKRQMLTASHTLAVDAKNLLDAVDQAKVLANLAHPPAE
Sequence of Tyrosine-protein kinase Fyn (Homo sapiens) (P06241 2-537 limits assumed): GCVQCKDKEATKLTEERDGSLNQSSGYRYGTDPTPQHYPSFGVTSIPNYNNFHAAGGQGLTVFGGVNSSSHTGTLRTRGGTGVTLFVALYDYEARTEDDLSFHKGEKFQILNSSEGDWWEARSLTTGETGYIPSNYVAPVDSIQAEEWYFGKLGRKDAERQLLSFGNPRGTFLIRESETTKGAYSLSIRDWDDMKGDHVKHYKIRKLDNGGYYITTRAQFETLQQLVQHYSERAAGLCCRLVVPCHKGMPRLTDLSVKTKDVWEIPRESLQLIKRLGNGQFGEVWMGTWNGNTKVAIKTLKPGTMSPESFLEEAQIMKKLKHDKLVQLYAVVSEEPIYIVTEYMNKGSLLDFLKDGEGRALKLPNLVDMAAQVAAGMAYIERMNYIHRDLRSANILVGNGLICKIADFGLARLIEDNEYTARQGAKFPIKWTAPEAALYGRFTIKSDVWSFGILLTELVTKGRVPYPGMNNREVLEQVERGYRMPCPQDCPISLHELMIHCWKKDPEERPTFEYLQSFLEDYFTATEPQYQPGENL
Sequence of Leucine-rich repeat serine/threonine-protein kinase 2 (Homo sapiens), Q5S007 [G2019S] (Q5S007 whole entry G2019S): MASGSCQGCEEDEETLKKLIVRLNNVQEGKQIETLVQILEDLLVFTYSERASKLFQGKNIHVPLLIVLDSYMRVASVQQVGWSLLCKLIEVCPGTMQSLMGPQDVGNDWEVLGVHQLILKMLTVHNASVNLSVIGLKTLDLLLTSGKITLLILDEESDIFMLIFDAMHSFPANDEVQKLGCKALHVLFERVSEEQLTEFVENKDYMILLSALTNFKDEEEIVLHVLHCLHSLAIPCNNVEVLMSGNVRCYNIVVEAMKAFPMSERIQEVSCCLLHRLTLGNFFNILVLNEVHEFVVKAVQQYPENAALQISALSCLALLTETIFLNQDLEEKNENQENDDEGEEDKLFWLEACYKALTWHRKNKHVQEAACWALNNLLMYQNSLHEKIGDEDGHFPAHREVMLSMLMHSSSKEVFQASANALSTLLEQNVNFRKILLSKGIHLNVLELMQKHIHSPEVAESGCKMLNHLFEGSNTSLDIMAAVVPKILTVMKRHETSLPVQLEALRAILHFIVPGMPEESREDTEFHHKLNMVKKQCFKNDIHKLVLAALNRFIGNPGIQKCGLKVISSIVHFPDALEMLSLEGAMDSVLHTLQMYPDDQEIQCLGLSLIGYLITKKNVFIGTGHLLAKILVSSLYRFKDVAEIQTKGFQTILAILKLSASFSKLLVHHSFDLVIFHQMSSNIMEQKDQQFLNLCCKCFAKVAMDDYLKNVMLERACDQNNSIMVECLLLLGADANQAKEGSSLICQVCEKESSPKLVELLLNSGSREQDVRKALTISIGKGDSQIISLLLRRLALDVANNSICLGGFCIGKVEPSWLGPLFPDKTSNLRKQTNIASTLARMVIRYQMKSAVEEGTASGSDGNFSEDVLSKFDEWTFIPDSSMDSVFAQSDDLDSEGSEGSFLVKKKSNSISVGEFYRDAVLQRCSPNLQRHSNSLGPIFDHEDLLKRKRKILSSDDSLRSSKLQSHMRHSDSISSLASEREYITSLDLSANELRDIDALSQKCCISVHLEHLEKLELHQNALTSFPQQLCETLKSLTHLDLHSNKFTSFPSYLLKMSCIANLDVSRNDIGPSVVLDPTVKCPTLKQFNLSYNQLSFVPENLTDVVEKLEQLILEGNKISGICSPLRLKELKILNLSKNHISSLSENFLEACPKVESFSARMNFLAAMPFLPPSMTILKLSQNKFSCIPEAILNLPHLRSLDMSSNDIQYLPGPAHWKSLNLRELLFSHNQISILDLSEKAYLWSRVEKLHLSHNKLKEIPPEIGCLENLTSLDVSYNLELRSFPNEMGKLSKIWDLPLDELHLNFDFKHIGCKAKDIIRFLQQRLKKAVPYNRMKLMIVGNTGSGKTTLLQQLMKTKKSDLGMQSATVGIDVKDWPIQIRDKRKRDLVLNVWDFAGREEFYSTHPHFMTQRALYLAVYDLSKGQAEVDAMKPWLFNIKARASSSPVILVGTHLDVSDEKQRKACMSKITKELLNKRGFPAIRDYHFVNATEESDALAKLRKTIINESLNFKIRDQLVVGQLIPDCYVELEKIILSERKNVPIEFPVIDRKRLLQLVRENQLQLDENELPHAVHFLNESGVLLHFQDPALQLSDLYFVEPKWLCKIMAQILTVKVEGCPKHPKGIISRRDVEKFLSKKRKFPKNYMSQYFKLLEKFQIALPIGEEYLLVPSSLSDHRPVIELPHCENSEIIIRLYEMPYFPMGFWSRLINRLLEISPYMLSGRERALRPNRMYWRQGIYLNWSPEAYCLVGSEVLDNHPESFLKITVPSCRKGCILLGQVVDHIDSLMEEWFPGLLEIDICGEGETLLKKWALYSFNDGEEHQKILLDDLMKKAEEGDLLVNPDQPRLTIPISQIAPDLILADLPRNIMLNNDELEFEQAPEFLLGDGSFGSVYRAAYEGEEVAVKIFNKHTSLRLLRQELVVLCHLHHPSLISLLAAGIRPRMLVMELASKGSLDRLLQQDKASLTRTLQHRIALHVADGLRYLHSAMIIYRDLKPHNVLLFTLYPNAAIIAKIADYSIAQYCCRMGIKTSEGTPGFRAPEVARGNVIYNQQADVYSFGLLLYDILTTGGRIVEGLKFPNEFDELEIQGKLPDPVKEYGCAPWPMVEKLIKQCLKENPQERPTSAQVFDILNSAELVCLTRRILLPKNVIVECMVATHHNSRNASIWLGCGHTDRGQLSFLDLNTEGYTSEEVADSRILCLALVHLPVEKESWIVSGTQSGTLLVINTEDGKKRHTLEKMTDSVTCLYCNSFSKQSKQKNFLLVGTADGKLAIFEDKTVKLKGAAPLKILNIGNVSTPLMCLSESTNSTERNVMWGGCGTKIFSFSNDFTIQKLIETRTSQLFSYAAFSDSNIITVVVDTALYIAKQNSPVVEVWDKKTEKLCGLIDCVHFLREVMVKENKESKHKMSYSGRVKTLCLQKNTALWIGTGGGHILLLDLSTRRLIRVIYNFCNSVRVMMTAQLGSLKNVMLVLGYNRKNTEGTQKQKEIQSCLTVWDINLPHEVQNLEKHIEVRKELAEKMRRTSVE

Compound: Cc1cc(C)cc([C@H]2c3cc(C)ccc3NC(=O)CN2C(=O)c2ccc(Br)s2)c1
% of activity ([2]; at 1 µM): 98%
% of activity ([2]; at 10 µM): 101%

Compound: O=C(NOC[C@H](O)CO)c1ccc(F)c(F)c1Nc1ccc(I)cc1F
% of control [3]: 100%

Compound: CN(C)C(=O)Cn1cc(-c2ccc(-c3cncc4ccccc34)cc2)cn1
% of control (Adenosine receptor A2a): 85%

Compound: CNC(=O)Nc1ccc(-c2nc(N3CC4CCC(C3)O4)c3cnn(C4CCC5(CC4)OCCO5)c3n2)cc1
% of inhibition [5]: 2%

Compound: CC[C@@H]1[C@H](F)C(=O)N[C@@H]1COc1nccc2cc(C(N)=O)c(OC)cc12 [ZIMLOVISERTIB]
% of inhibition ([6]; at 0.01 µM): 16.9%
% of inhibition ([6]; at 0.04 µM): 12.4%
% of inhibition ([6]; at 0.2 µM): 10.3%
% of inhibition ([6]; at 1 µM): 8.6%
% of inhibition ([6]; at 5 µM): 11.7%

Now from value to molecule:

% of control [1]: 6.24%
Compound: Cn1cc(-n2cnc3c(NCc4nc5cc(Cl)c(Cl)cc5[nH]4)nc(N4CCOCC4)nc32)cn1

dTM [4]: 3.4 K
Compound: CN1CCN(C(=O)c2ccc3cc2OCCOCCNc2ccn4ncc-3c4n2)CC1

Reference: ChEMBL document CHEMBL5465560, “Selectivity Literature for EUbOPEN Chemogenomic Library” (2024)
